Patent publication US7488759B2, “Malic acid addition salts of terbinafine” (Novartis AG, priority 2001, dated 2009)
Structures can show the parent of a compound that is named as a salt. Where two headings read alike, the source gives them in different places. Blank lines part the entries; values can stand above or below the compound they belong to.

How the values were obtained:
[1] = target: CYP2D6 (Homo sapiens, UniProt P10635); conditions: cited from earlier work
[2] = pharmacokinetic study in Beagle dogs, oral capsules; type: in vivo; conditions: 7 Beagle dogs, oral capsule 62.5 mg base equivalent
Procedure: This appears i.a. from a pharmacokinetic study in animals involving 7 Beagle dogs weighing about 10 kg, aged about 5 years, upon oral administration of capsules prepared by mixing active terbinafine salt substance [hydrochloride or L-(−)-hydrogen malate; 62.5 mg base equivalent per capsule] with lactose in a ratio of 1:1 w/w and filling into appropriate hard gelatine capsules (particle size distribution similar for both salts).

[3] = solubility in water and organic solvents; type: physicochemical; conditions: for solubility: 25 °C
Source text: They thus form crystals more readily than the hydrochloride or the free base. […] Polymorphs have different dissolution rates, milling behaviour and stability, e.g. in galenical forms where the pharmaceutically active compound is in solid form, such as tablets or suspensions, and they influence bioavailability. The surprising presence of polymorphism is therefore advantageous in terms of improved processability, such as with polymorph particularly stable thermodynamically, in formulations with compound in solid form, e.g. tablets or suspensions, or with polymorph having a particularly high dissolution rate or solubility, in formulations with dissolved compound, e.g. nail lacquers. The compounds of the invention are therefore better processable for e.g. large scale tablet formulation; they also have favourable penetration/permeation properties and can thus readily be formulated into topical forms, such as nail lacquers. […] Further, they are non-hygroscopic, thus providing stable formulations while minimizing the risk of intrinsic chemical breakdown.

[4] = in vitro nail penetration/permeation assay (modified Franz cell); type: in vitro ADME, human; conditions: 72 hours, 1% solution
Procedure: Human cadaveric toe nails are used in a Franz cell (FIG. 1) modified to accept cadaveric human toenails by having a pair of flexible rings made of a silicone elastomer (PDMS) having good sealant properties to adequately mount hard nails, using liquid scintillation counting (LSC) (picogram limit of detection) to measure the increase in radioactivity in the acceptor compartment. Each measurement is effected in triplicate. 90 randomly selected nails are exposed for 72 hours to a solution of 100 μl of ^14C-labelled terbinafine hydrochloride or terbinafine L-(−)-hydrogen malate (form A) solution [25 μBq/ml; 1% active product; 5% 1,2-propylene glycol; 2% Cetomacrogol-1000® (polyoxyethylene-glycol-1000-monoacetylether); 25% ethanol 94%; 67% distilled water] (w/w). Each area of the nail exposed to the formulation has a 9 mm diameter (about 64 mm^2). Exposure is effected under occlusive (chamber closed to air) and non-occlusive (chamber open to air) conditions.
The radiolabelled product is detectable in the buffer-filled receptor chamber from about 8 hours of incubation. Its concentration in the receptor chamber as measured by LSC increases with incubation time and concentration of applied formulation. A total of 24 penetration chambers are used in parallel. Each formulation is measured in triplicate.

[5] = set-up: AUC increase factor in steady state vs single dose: unit not given beside the values; conditions: cited from earlier work
[6] = Beagle, dog, plasma, po, 62.5 mg
[7] = ethanol, organic solvent or mixture, read-out: solubility in ethanol
[8] = human subjects, single 250 mg terbinafine dose
[9] = steady state after several days dosing

Sequence of CYP2D6 (P10635 whole entry): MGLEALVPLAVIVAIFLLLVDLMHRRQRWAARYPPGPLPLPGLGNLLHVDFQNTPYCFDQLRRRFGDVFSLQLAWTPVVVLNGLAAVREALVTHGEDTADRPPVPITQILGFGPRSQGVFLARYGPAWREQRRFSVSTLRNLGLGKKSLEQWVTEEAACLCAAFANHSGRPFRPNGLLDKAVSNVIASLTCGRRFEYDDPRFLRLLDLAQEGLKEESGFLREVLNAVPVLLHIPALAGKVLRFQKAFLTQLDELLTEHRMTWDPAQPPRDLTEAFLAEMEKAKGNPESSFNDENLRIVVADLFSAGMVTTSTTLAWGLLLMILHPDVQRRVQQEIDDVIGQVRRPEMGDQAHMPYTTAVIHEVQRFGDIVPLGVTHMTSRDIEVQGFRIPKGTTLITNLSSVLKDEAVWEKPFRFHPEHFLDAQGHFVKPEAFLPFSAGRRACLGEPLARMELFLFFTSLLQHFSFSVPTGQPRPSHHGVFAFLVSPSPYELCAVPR

Structure (SMILES): CN(C/C=C/C#CC(C)(C)C)Cc1cccc2ccccc12 [Terbinafine, (E)-N-methyl-6,6-dimethyl-N-(1-naphthylmethyl)hept-2-en-4-inyl-1-amine]
- inhibition of CYP2D6 [1]: potent inhibitor

Structure (SMILES): CN(C/C=C/C#CC(C)(C)C)Cc1cccc2ccccc12 [L-(−)-hydrogen malate, terbinafine L-(−)-hydrogen malate]
- coefficient of variation (CV) of AUC, inter-animal variability [2]: 30%
- AUC [2, 6]: 392 ng·h/mL
- Cmax [2, 6]: 134 ng/mL
- solubility in ethyl acetate ([3]; 25°): > 30 mg/mL
- solubility in water ([3]; 25°): 12 to 15 mg/mL

Structure (SMILES): CN(C/C=C/C#CC(C)(C)C)Cc1cccc2ccccc12 [Example 4, Terbinafine D-(+)-hydrogen malate]
- solubility in water ([3]; 25°): ~7 mg/mL

More lines, main results first:

- amount recovered in receptor chamber (permeation) ([4]; non-occlusive conditions): ~41 ng
- amount recovered in receptor chamber (permeation) ([4]; occlusive conditions): about 63 ng
- solubility in ethyl acetate ([3]; 25°): > 30 mg/mL
- solubility in water ([3]; 25°): ~12 mg/mL
- solubility in ethanol ([3]; 25°, listed as Example 3): > 50 mg/mL
- solubility ([3]; aqueous with cosolvent or surfactant or cyclodextrin, solubility, read-out: solubility in ethane/water 2:8 v/v): > 30 mg/mL
- solubility [3, 7]: > 30 mg/mL
Structure (SMILES): CN(C/C=C/C#CC(C)(C)C)Cc1cccc2ccccc12 [Example 1, Terbinafine L-(−)-hydrogen malate (polymorph form A)]

- solubility [3, 7]: > 50 mg/mL
- solubility ([3]; ethyl acetate, organic solvent or mixture, read-out: solubility in ethyl acetate): ~17 mg/mL
- solubility ([3]; water, water, read-out: solubility in water): ~7 mg/mL
Structure (SMILES): CN(C/C=C/C#CC(C)(C)C)Cc1cccc2ccccc12 (racemic) [Example 5, Terbinafine DL-(±)-hydrogen malate]

- coefficient of variation (CV) of AUC, inter-animal variability ([2]; hydrochloride): 39%
- mean AUC ([2]; hydrochloride): 348 ng·h/mL
- mean Cmax ([2]; hydrochloride): 146 ng/mL
Structure (SMILES): CN(C/C=C/C#CC(C)(C)C)Cc1cccc2ccccc12 [terbinafine hydrochloride]
- increase in AUC with a fat-rich meal ([5]; administered with a fat-rich meal): 42%
- Peak drug plasma concentration (Cmax) [5, 8]: about 1.3 μg/ml
- area under the curve over 24 hours (AUC) [5, 8]: about 4.76 μg·hour/ml
- effective half-life ([5]; human, in vivo): about 36 hours
- reduction of clearance ([5]; patients with renal impairment (creatinine clearance ≤50 ml/min) or hepatic cirrhosis): approximately 50%
- AUC increase factor in steady state vs single dose [5, 9]: 2.5
- Cmax higher in steady state vs single dose [5, 9]: 25%

- solubility in water ([3]; 25°): 15 mg/mL
Structure (SMILES): CN(C/C=C/C#CC(C)(C)C)Cc1cccc2ccccc12 [Example 2, Terbinafine L-(−)-hydrogen malate (polymorph form B)]
